How the values were obtained:
[1] = tested on: HSV Strain 17syn+; assay: Acyclovir escape mutants after 10 serial passages in rabbit skin cells; assay type: cell-based, Herpes Simplex Virus; settings: 10 passages, 50 μM acyclovir alone or with 2% tranexamic acid; plated with 100 μM acyclovir vs. none
[2] = tested on: HO-1, a clinical isolate of HSV-1 that is multiple drug resistant; assay: Viral yields of multiple drug resistant HSV-1 isolate HO-1, plaque assay; assay type: cell-based, Herpes Simplex Virus Type 1; settings: 2% tranexamic acid, MOI 5, 24 hpi
[3] = tested on: cold sores; assay: Topical tranexamic acid on cold sore outbreaks in human subjects; assay type: in vivo
[4] = tested on: HSV-1; assay: Effect of 2% TA on HSV-1 DNA replication; assay type: cell-based, Herpes Simplex Virus Type 1; settings: MOI 0.05 and 0.5
[5] = tested on: rabbit skin cells; settings: 48 h

Row | Structure (SMILES) | Ratio of Acyclovir Resistant (ACVr) Virus [1] | effect on HO-1 viral yields [2] | time to resolution of cold sore outbreak symptoms ([3]; 3% (w/v) topically several times a day, three human subjects) | cold sore outbreaks during one year (usual 3 to 5) ([3]; 3 to 10% (w/v) applied to face daily for approximately one year, one subject) | time to healing of cold sore ([3]; 5% (w/v) aqueous solution, about 0.25 mL, 5 times, one subject) | outcome of cold sore outbreak ([3]; 10% (w/v) topically a single time, one subject) | replication of HSV DNA [4] | CC50 [5]
1 | Nc1nc2c(ncn2COCCO)c(=O)[nH]1 [Acyclovir, acyclovir] | 0.0044 | – | – | – | – | – | – | –
2 | NC[C@H]1CC[C@H](C(=O)O)CC1 [tranexamic acid] | – | effective | ≤ 48 h | one | ≤ 36 h | the blister was gone and the outbreak had ceased | significantly reduces the replication of HSV DNA | 320 mM
